We go through 13 compounds from US20100240580A1, “AZOLOARINE DERIVATIVES, METHOD FOR THE PRODUCTION THEREOF, PHARMACEUTICALS CONTAINING THESE COMPOUNDS AND THE USE THEREOF” (SANOFI-AVENTIS, priority 2007, published 2010).

This assay has as its target T1, SCD1 (Rattus norvegicus, UniProt P07308).
T1 construct: The resuspended microsome fraction was stored at −80° C; from tissue; host or cells: liver microsomes of male Wistar rats fed a carbohydrate-rich, low-fat diet
T1 sequence (P07308 1-358): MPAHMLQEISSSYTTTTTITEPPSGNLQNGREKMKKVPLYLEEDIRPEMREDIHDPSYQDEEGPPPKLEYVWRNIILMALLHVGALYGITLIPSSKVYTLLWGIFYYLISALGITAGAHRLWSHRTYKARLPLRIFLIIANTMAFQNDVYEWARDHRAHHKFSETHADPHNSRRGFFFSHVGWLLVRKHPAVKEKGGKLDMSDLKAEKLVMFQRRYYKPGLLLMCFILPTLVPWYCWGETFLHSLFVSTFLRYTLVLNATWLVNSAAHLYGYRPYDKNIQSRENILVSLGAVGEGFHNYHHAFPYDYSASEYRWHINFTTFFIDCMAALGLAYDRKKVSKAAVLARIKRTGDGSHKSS
Description: stearoyl-CoA desaturase (SCD1) activity, thin-layer chromatography assay with rat liver microsomes. The note with it: compound at 10 μM, [1-14C]-stearic acid, 37° C., 1 h. It counts as biochemical. The protocol:
The activity of the compounds of the invention of the formula I was investigated in the following assay system with microsomal enzymes:
The livers of male Wistar rats which (to induce SCD1 expression) have been fed with a carbohydrate-rich, low-fat diet were homogenized with a Potter tissue homogenizer and differential centrifugation in a buffer which contained 250 mM sucrose and 5 mM HEPES (pH 7.0). The resuspended microsome fraction was stored at −80° C. The stearoyl-CoA desaturase activity was determined in a thin-layer chromatography assay with […] stearic acid. Stated briefly, the respective compounds of the invention (in DMSO in a final concentration of 1% [v/v]) were incubated with 15 μg of the rat liver microsomes in 200 μl of assay buffer (6 mM MgCl2, 250 mM sucrose, 150 mM KCl, 40 mM NaF, 100 mM Na2HPO4 (pH 7.4), 1.3 mM ATP, 1.5 mM reduced glutathione, 60 μM CoA, 0.33 mM nicotinamide and 0.94 mM NADH) at room temperature for 10 min. 0.5 μCi of [1-^14C]-stearic acid (55 mCi/mmol) was added, and the mixture was incubated at 37° C. for 1 h. The radiolabeled fatty acids were then hydrolyzed with 2.5 M KOH/MeOH:H2O (4:1) at 65° C. for 4 h, protonated with 280 μl of formic acid and extracted with 500 μl of hexane. The TLC plates were immersed in 10% AgNO3 and heat-activated before use. 150 μl of the hexane phase were put on the plates, and the TLC plates were developed in buffer (chloroform:methanol:acetic acid:water [90:8:1:0.8]) and dried. The plates were read in a PhosphoImager to quantify the SCD1 activity.
The skilled person is able to modify this assay to determine the inhibition of stearoyl-CoA desaturase activity in various respects.

As to `O=C(NCc1nccs1)c1ccc2nc(-c3ccc(Oc4ccccc4Cl)cc3)[nH]c2c1` [Example 16, 2-[4-(2-Chlorophenoxy)phenyl]-3H-benzoimidazole-5-(thiazol-2-ylmethyl)carboxamide], the “% Inhibition (10 μM)” value is 86%.

Regarding `O=C(NCc1ccc(Cl)s1)c1ccc2nc(-c3ccc(C(=O)c4ccccc4C(F)(F)F)cc3)[nH]c2c1` [Example 27, 2-[4-(2-Trifluoromethylbenzoyl)phenyl]-3H-benzimidazole-5-(5-chlorothiophen-2-ylmethyl)-carboxamide], the “% Inhibition (10 μM)” value was 100%.

Regarding `O=C(NCc1nccs1)c1ccc2nc(-c3ccc(Oc4ccccc4)cc3)[nH]c2c1` [Example 9, 2-(4-Phenoxyphenyl)-3H-benzimidazole-5-(thiazol-2-ylmethyl)carboxamide], the “% Inhibition (10 μM)” value was determined as 29%.

`O=C(NCc1nccs1)c1ccc2nc(-c3ccc(Oc4ccccc4C(F)(F)F)cc3)[nH]c2c1` [Example 25, 2-[4-(2-Trifluoromethylphenoxy)phenyl]-3H-benzimidazole-5-(thiazol-2-ylmethyl)carboxamide]: the “% Inhibition (10 μM)” value turned out to be 100%.

For the compound `O=C(NCc1cccs1)c1ccc2nc(-c3ccc(C(=O)c4ccccc4C(F)(F)F)cc3)[nH]c2c1` [Example 19, 2-[4-(2-Trifluoromethylbenzoyl)phenyl]-3H-benzimidazole-5-(thiophen-2-ylmethyl)-carboxamide], the “% Inhibition (10 μM)” value worked out at 100%.

`CC(C)CNC(=O)c1ccc2nc(-c3ccc(C(=O)c4ccccc4C(F)(F)F)cc3)[nH]c2c1` [Example 20, 2-[4-(2-Trifluoromethylbenzoyl)phenyl]-3H-benzoimidazole-5-isobutylcarboxamide]: the “% Inhibition (10 μM)” value was 77%.

Turning to `O=C(NCc1ccc(Cl)s1)c1ccc2nc(-c3ccc(Oc4ccccc4)cc3)[nH]c2c1` [Example 8, 2-(4-Phenoxyphenyl)-3H-benzimidazole-5-(5-chlorothiophen-2-ylmethyl)carboxamide], the “% Inhibition (10 μM)” value came to 37%.

In the case of `CC(C)CCNC(=O)c1ccc2nc(-c3ccc(Oc4ccccc4Cl)cc3)[nH]c2c1` [Example 13, 2-[4-(2-Chlorophenoxy)phenyl]-3H-benzoimidazole-5-(3-methylbutyl)carboxamide], the “% Inhibition (10 μM)” value is on record as 58%.

Turning to `O=C(NCc1ccc(Cl)s1)c1ccc2nc(-c3ccc(Oc4ccccc4Cl)cc3)[nH]c2c1` [Example 15, 2-[4-(2-Chlorophenoxy)phenyl]-3H-benzoimidazole-5-(5-chlorothiophen-2-yl-methyl)carboxamide], the “% Inhibition (10 μM)” value turned out to be 95%.

Turning to `O=C(NCc1nccs1)c1ccc2[nH]c(-c3ccc(C(=O)c4ccccc4C(F)(F)F)cc3)nc2c1` [Example 28, 2-[4-(2-Trifluoromethylbenzoyl)phenyl]-1H-benzimidazole-5-(thiazol-2-ylmethyl)-carboxamide], the “% Inhibition (10 μM)” value amounted to 100%.

For the compound `O=C(NCCC1CC1)c1ccc2nc(-c3ccc(Oc4ccccc4Cl)cc3)[nH]c2c1` [Example 14, 2-[4-(2-Chlorophenoxy)phenyl]-3H-benzoimidazole-5-(2-cyclopropylethyl)carboxamide], the “% Inhibition (10 μM)” value turned out to be 80%.

On to `O=C(NCCC1CC1)c1ccc2nc(-c3ccc(Oc4ccccc4C(F)(F)F)cc3)[nH]c2c1` [Example 23, 2-[4-(2-Trifluoromethylphenoxy)phenyl]-3H-benzimidazole-5-(2-cyclopropylethyl)-carboxamide], for which the “% Inhibition (10 μM)” value worked out at 96%.

Turning to `CC(C)CCNC(=O)c1ccc2nc(-c3ccc(Oc4ccccc4C(F)(F)F)cc3)[nH]c2c1` [Example 24, 2-[4-(2-Trifluoromethylphenoxy)phenyl]-3H-benzimidazole-5-(3-methylbutyl)carboxamide], the “% Inhibition (10 μM)” value worked out at 77%.
